According to patent publication US12215112B2, “CD151 inhibitors” (ESFAM BIOTECH PTY LTD, priority 2020, dated 2025):

Test system: PC3 cells
Test: xCELLigence RTCA real-time cell invasion assay (CIM plate, Matrigel) on PC3 prostate cancer cells
Assay type: cell-based
Details: Homo sapiens, PC-3, compound 25 uM to 1 uM, cell index monitored for 72 hours, four-parameter dose-response curve, read-out: IC50, Effect of compounds on the invention on prostate cancer cells
Outline: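 PC3 invasion through 5% Matrigel-coated CIM-plate upper chambers was tracked as impedance cell index over 72 h. Compound at 25–1 µM was present in both chambers, with 3×10^4 cells seeded in serum-free RPMI. IC50 came from a four-parameter fit, and IC90 was derived from IC50 and the Hill slope.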

| Compound | IC50 |
| --- | --- |
| CC(C)c1c(C(=O)Nc2cccc(OC3CCOCC3)c2)nn2c(-c3cn[nH]c3)cc(N3Cc4ccc(F)cc4C3)nc12 [Compound 121, 5-(5-fluoroisoindolin-2-yl)-3-isopropyl-7-(1H-pyrazol-4-yl)-N-(3-((tetrahydro-2H-pyran-4-yl)oxy)phenyl)pyrazolo[1,5-a]pyrimidine-2-carboxamide] | 2750 nM |
| COc1cccc(NC(=O)c2nn3c(-c4cn[nH]c4)cc(N4Cc5ccc(F)cc5C4)nc3c2C(C)C)c1F [Compound 122, N-(2-fluoro-3-methoxyphenyl)-5-(5-fluoroisoindolin-2-yl)-3-isopropyl-7-(1H-pyrazol-4-yl)pyrazolo[1,5-a]pyrimidine-2-carboxamide] | 9070 nM |
| CC(C)c1c(C(=O)Nc2ccc(OC3CCOCC3)cc2)nn2c(-c3cn[nH]c3)cc(N3Cc4ccc(F)cc4C3)nc12 [Compound 123, 5-(5-fluoroisoindolin-2-yl)-3-isopropyl-7-(1H-pyrazol-4-yl)-N-(4-((tetrahydro-2H-pyran-4-yl)oxy)phenyl)pyrazolo[1,5-a]pyrimidine-2-carboxamide] | 1020 nM |
| COc1ccc(F)c(NC(=O)c2nn3c(-c4cn[nH]c4)cc(N4Cc5ccc(F)cc5C4)nc3c2C(C)C)c1 [Compound 124, N-(2-fluoro-5-methoxyphenyl)-5-(5-fluoroisoindolin-2-yl)-3-isopropyl-7-(1H-pyrazol-4-yl)pyrazolo[1,5-a]pyrimidine-2-carboxamide] | 1150 nM |
| COc1cccc(NC(=O)c2nn3c(-c4cn[nH]c4)cc(N4Cc5cccc(F)c5C4)nc3c2C(C)C)c1 [Compound 125, 5-(4-fluoroisoindolin-2-yl)-3-isopropyl-N-(3-methoxyphenyl)-7-(1H-pyrazol-4-yl)pyrazolo[1,5-a]pyrimidine-2-carboxamide] | 7620 nM |
| COc1cccc(NC(=O)c2nn3c(-c4cn[nH]c4)cc(N4Cc5cccc(Cl)c5C4)nc3c2C(C)C)c1 [Compound 126, 5-(4-chloroisoindolin-2-yl)-3-isopropyl-N-(3-methoxyphenyl)-7-(1H-pyrazol-4-yl)pyrazolo[1,5-a]pyrimidine-2-carboxamide] | 1200 nM |
